In patent US20240260578A1, “HERBICIDAL COMPOSITIONS AND RELATED METHODS” (BELCHIM Crop Protection USA LLC, priority 2023, published 2024):
Where “and” joins values, the source holds several entries; their conditions need not be identical. Identical values can stand only once.

What was measured:
Format in all cases: in vivo
[1] = test system: Yellow nutsedge (Cypersus esculentus); assay: Field trial, post-emergent control of established Yellow nutsedge (Example 1); conditions: 10 DAT, pyridate 24 fluid ounces/acre, sulfentrazone 12 fluid ounces/acre, visual estimate vs untreated plot, non-replicated
Method: Field trials were conducted to evaluate the efficacy of pyridate herbicide alone and in combination with sulfentrazone when applied in a post-emergent manner to established Yellow nutsedge (Cypersus esculentus). The field trial was conducted alongside of a gravel path on the Corbett Farm located Batten Pond Road in Selma, NC 27576. Yellow nutsedge was established and ranged from 8-12 inches in height. The distribution of weeds in the plots was uniform throughout this location.
Individual treatments were applied on a 1×4 meter squared plot area. The experimental design was a non-replicated linear strip plot. The applications were made with a RYOBI electric 4 gallon backpack sprayer equipped with 11004 nozzles with a spray pressure of 35 psi calibrated to deliver about 40 gallons per acre spray volume, respectively. All applications were applied on the same day. The wind speed was less than 10 mph at time of application.
Pyridate used in this trial was a five pound active ingredient per gallon emulsifiable concentrate (EC) marketed by Belchim Crop Protection as Tough® 5EC Herbicide. The sulfentrazone used in this trial was Sulfentrazone 4L Select marketed by Prime Source, a division of Albaugh, LLC. […]

[2] = test system: green Kyllinga (Kyllinga brevifolia); assay: Post-emergent control of green Kyllinga, Hampstead, North Carolina (Example 3); conditions: 35 DAT, rates per Table 3
Method: (§1) A study was conducted to evaluate and compare the post-emergent control of green Kyllinga (Kyllinga brevifolia) versus the industry standards of Sulfentrazone Select or Halosulfuron 75 WDG. The study was conducted in Hampstead, North Carolina at Old Pointe Country Club. A randomized block design with four replications was utilized. Treatments were applied with a CO2 pressurized spray system. Irrigations were suspended for at least 24 hours after application.

[3] = test system: Yellow Nutsedge; assay: Post-emergent control of Yellow Nutsedge, Hampstead, North Carolina (Example 4); conditions: 35 DAT, rates per Table 5
Method: as §1, with “Yellow Nutsedge” for “green Kyllinga (Kyllinga brevifolia)”, “application. [table]” for “application.”

SMILES	Percentage (%) Control 10 Days after Treatment (DAT) [1]	Percentage Control [2] [%]	Percentage Control [3] [%]
CCCCCCCCSC(=O)Oc1cc(Cl)nnc1-c1ccccc1 [Pyridate, pyridate]	approximately 20% and 20%	–	–
Cc1nn(-c2cc(NS(C)(=O)=O)c(Cl)cc2Cl)c(=O)n1C(F)F [Sulfentrazone, sulfentrazone]	approximately 70% and 70%	43.3	60
